Patent publication US7074814B2, “3-substituted indoles and derivatives thereof as therapeutic agents” (Warner-Lambert Company LLC, priority 2003, dated 2006)
pIC50: −log10 of the molar value.

Target: T1, p101/p110γ protein (PI3Kγ) (Homo sapiens, UniProt P48736)
T1 construct: HA; made in house; host or cells: Spodoptera frugiperda (Sf9) cells, baculovirus coinfection
Test: PI3Kγ in vitro kinase assay
Type: biochemical
Settings: purified recombinant p101/p110γ with G protein β1/γ2 subunits; 20 μM ATP, 25 μM PIP2; 20 minutes at room temperature
Method: Spodtera frugiperda cells, grown in ESF921 media, were coinfected with baculovirus expressing a glu-tagged p101 and baculovirus expressing an HA-tagged p110γ, at a 3:1 ratio of p101 baculovirus to p110γ baculovirus. Sf9 cells were grown to 1×10^7 total cells/mL in 10 L bioreactors and harvested 48–72 hours post infection. Samples of infected cells were then tested for expression of […] PI3 kinase by immunoprecipitation and Western Blot analysis methods (see below).
To purify PI3Kγ, 4 volumes of room temperature hypotonic lysis buffer (1 mM MgCl2, 1 mM DTT, 5 mM EGTA, 1 mM Pefabloc, 0.5 μM aprotinin, 5 μM leupeptin, 2 μM pepstatin, 5 μM E64, pH 8) per gram of cell paste, was poured onto frozen cell pellets with stirring, then lysed in a nitrogen “bomb” at 400 psi (599HC T316, Parr Instrument Co, Moline, Ill.). NaCl was added to 150 mM, and sodium cholate was added to 1% and mixed for another 45 minutes. The lysates were clarified by centrifugation for 25 minutes at 14,000 rpm. The lysates were then loaded over anti-glu-linked Protein-G Sepaharose beads (Covance Research Products, Richmond, Calif.) using 20 mL resin/50 g cell paste. The column was washed with 15 volumes of wash buffer (1 mM DTT, 0.2 mM EGTA, 1 mM Pefabloc, 0.5 μM aprotinin, 5 μM leupeptin, 2 μM pepstatin, 5 μM E64, 150 mM NaCl, 1% sodium cholate, pH 8). PI3Kγ was eluted with 6 column volumes of wash buffer that contain 100 μg/mL of a peptide that competes for binding of the glu tag. The column fractions with the eluted protein (determined by taking OD280 readings) were collected and dialyzed in 0.2 mM EGTA, 1 mM DTT, 1 mM Pefabloc, 5 μM leupeptin, 0.5% sodium cholate, 150 mM NaCl, and 50% glycerol, pH 8. The fractions were stored at −80° C. until further use.
Spodtera frugiperda cells were coinfected with baculovirus expressing a glu-tagged G protein β1 and baculovirus expressing a G protein β2, at a 1:1 ratio of glu-tagged G protein β1 baculovirus to G protein β2 baculovirus. Sf9 cells are grown in 10 L bioreactors and harvested 48–72 hours post infection. Samples of infected cells were tested for G protein β1/β2 expression by Western Blot analysis, as described below. Cell lysates were homogenized and loaded onto a column of glu-tagged beads as in Biological Example 1 and competed off the column with a glu peptide and processed as described in Biological Example 1.
The inhibitory properties of the compounds in Table 1 were assayed in an in vitro PI3K assay. In a 96-well polypropylene plate, each well was spotted with 2 μL of 50 times the desired final concentration of compound in DMSO. Purified recombinant p101/p110γ protein (0.03 μg; ˜2.7 nM) and G protein β1/γ2 subunits (0.09 μg; ˜57.7 nM) for each reaction was combined in the assay buffer (30 mM HEPES, 100 mM NaCl, 1 mM EGTA, and 1 mM DTT). ATP and [γ-^32P-ATP] (0.09 μCi) were added to this mixture so that the final ATP concentration in the reaction was 20 μM. Lipid micelles were formed by sonicating phosphatidylinositol-4,5-diphosphate (PIP2), phosphatidylethanolamine (PE), and Na-cholate in the assay buffer for 10 minutes, adding MgCl2 and incubating on ice for 20 minutes, for final concentrations of 25 μM PIP2, 300 μM PE, 0.02% Na-cholate, and 10 mM MgCl2 in the reaction. The reactions were started by adding equal volumes lipid and enzyme mixture in a total volume of 50 μL, allowed to run for 20 minutes at room temperature, and stopped with 100 μL 75 mM H3PO4. The lipid product was transferred to a glass fiber filter plate and washed with 75 mM H3PO4 several times. The presence of radioactive lipid product (PIP3) was measured by adding Wallac Optiphase mix to each well and counting in a Wallac 1450 Trilux plate reader (PerkinElmer Life Sciences Inc., Boston, Mass. 02118). The IC50 for each compound tested is reported in μM in Table 1: […]

T1 sequence (P48736 whole entry, species assumed): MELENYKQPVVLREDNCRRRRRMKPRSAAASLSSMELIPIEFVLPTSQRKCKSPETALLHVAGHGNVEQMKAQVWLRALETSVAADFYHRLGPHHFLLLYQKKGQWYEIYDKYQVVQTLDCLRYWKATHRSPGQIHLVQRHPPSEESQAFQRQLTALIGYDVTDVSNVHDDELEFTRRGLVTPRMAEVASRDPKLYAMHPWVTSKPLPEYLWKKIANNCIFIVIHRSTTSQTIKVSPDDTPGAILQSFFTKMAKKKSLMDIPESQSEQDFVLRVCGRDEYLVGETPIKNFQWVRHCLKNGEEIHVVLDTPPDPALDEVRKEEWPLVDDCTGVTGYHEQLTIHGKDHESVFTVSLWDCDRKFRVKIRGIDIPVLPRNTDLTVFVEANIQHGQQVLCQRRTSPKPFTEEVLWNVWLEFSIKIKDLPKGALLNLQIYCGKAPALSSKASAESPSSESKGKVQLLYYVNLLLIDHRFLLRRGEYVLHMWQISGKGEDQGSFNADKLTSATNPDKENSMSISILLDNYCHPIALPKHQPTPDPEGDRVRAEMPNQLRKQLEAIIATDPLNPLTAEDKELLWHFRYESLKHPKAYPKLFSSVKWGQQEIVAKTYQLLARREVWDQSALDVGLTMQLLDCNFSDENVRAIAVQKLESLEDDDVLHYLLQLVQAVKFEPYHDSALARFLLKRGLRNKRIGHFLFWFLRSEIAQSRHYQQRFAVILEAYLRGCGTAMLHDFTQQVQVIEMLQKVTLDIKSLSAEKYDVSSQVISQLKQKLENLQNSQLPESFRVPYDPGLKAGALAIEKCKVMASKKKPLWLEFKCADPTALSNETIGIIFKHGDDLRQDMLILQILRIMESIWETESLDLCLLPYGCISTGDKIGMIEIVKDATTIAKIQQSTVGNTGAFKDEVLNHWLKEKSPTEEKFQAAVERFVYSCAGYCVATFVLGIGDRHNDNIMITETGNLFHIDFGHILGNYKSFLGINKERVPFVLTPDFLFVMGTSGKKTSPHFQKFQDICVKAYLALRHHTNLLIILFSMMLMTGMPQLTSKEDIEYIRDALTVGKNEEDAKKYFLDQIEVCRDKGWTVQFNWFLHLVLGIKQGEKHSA
T1 sequence (Q8WYR1 whole entry partner, species assumed): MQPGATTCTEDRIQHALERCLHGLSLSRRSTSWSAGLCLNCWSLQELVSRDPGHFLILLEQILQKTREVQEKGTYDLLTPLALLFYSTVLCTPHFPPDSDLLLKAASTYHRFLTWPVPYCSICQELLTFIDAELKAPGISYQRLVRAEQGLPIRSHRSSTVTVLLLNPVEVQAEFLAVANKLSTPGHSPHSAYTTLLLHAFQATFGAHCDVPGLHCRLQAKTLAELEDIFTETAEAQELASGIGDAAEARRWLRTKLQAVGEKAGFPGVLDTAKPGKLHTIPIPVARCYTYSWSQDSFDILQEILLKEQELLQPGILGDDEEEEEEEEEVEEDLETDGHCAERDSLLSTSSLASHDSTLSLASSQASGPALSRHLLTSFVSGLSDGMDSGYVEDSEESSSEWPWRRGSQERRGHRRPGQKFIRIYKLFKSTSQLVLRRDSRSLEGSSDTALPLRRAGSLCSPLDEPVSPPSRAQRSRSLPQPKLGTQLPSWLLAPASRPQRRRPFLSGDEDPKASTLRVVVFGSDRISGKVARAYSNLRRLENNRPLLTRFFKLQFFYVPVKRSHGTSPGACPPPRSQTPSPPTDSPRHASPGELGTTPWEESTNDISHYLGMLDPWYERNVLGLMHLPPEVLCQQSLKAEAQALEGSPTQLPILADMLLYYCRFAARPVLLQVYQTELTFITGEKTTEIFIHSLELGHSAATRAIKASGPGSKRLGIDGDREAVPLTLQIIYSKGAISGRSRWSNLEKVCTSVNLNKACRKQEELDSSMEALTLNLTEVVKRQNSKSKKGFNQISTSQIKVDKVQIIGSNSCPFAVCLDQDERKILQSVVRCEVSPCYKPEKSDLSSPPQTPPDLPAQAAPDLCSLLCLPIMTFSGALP

Row | Compound | pIC50
1 | 1-Ethyl-5,6-dimethoxy-3-phenyl-1H-indole-2-carboxylic acid (1H-tetrazol-5-yl)-amide [Example 6] | 5.18
2 | 5,6-Dimethoxy-3-phenyl-1-propyl-1H-indole-2-carboxylic acid (1H-tetrazol-5-yl)-amide [Example 7] | 5.38
3 | COc1cc2[nH]c(C(=O)Nc3nn[nH]n3)c(Sc3ccccc3C)c2cc1OC [Example 1, 5,6-Dimethoxy-3-o-tolylsulfanyl-1H-indole-2-carboxylic acid (2H-tetrazol-5-yl)-amide] | 6.23
4 | COc1cc2[nH]c(C(=O)Nc3nn[nH]n3)c(Sc3ccc(Cl)c(Cl)c3)c2cc1OC [Example 2, 3-(3,4-Dichloro-phenylsulfanyl)-5,6-dimethoxy-1H-indole-2-carboxylic acid (2H-tetrazol-5-yl)-amide] | 5.73
5 | COc1cc2c(Sc3ccccc3)c(C(=O)Nc3nn[nH]n3)n(C)c2cc1OC [Example 3, 5,6-Dimethoxy-1-methyl-3-phenylsulfanyl-1H-indole-2-carboxylic acid (2H-tetrazol-5-yl)-amide] | 6.26
6 | COc1cc2[nH]c(C(=O)Nc3nn[nH]n3)c(Sc3ccccc3)c2cc1OC [Example 4, 5,6-Dimethoxy-3-phenylsulfanyl-1H-indole-2-carboxylic acid (2H-tetrazol-5-yl)-amide] | 6.68
7 | COc1cccc(Sc2c(C(=O)Nc3nn[nH]n3)[nH]c3cc(OC)c(OC)cc23)c1 [Example 5, 5,6-Dimethoxy-3-(3-methoxy-phenylsulfanyl)-1H-indole-2-carboxylic acid (2H-tetrazol-5-yl)-amide] | 6.14
